Some test systems named below: SNB-19 CNS; HOP-62 NSCLC; SF-295 CNS; U251 CNS; SF-539 CNS; HCT-15 colon; SK-OV-3 ovarian; NCI/ADR-RES ovarian; SNB-75 CNS; UO-31 renal; EKVX NSCLC; SF-268 CNS; 786-0 renal; SK-MEL-28 melanoma; MDA-MB-435; RXF 393 renal; CAKI-1 renal; SK-MEL-2 melanoma; NCI-H226 lung.
Common to all, as to assay: inhibition of tumour cell growth, NCI panel, 48 h

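Protocol summary: plate cells (96-well), add compound at 5 concentrations, incubate 48 h, interpolate endpoints linearly. TGI marks complete inhibition of growth.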

For the molecule `CNC1c2ccccc2C(=O)c2cc3c(cc21)OCCOCCOCCOCCO3` (centres undefined), the TGI in the experiment on SNB-19 CNS, in the experiment with HOP-62 NSCLC, in the experiment with SF-295 CNS, in the experiment with U251 CNS, in the experiment with SF-539 CNS and with HCT-15 colon was > 100 µM in each case. For the same molecule, the TGI with SK-OV-3 ovarian, with NCI/ADR-RES ovarian, with SNB-75 CNS, in the experiment with UO-31 renal, in the experiment with EKVX NSCLC and in the experiment on SF-268 CNS was > 100 µM in each case. Further, the TGI in the experiment on 786-0 renal, with SK-MEL-28 melanoma and in the experiment on MDA-MB-435 was > 100 µM in each case.

With `CCC1(CC)C(=O)N(C(=O)c2ccccc2)N(C(=O)c2ccc(Cl)cc2)C1=O`, the TGI in the experiment with SNB-19 CNS, in the experiment with RXF 393 renal, in the experiment with CAKI-1 renal, with SK-MEL-2 melanoma, in the experiment on HOP-62 NSCLC and in the experiment with SF-295 CNS was > 75 µM throughout. Also, the TGI in the experiment on U251 CNS, in the experiment on HCT-15 colon, in the experiment on SK-OV-3 ovarian, with NCI/ADR-RES ovarian, in the experiment with SNB-75 CNS and with UO-31 renal was > 75 µM throughout. Also, the TGI in the experiment with EKVX NSCLC, with SF-268 CNS, in the experiment on NCI-H226 lung, in the experiment on 786-0 renal, in the experiment with SK-MEL-28 melanoma and in the experiment on MDA-MB-435 was > 75 µM throughout.

With `CC(=O)OCC1OC(c2c(OC(C)=O)cc(C)c3c(=O)cc(/C(C(C)=O)=C(\C)O)oc23)C(OC(C)=O)C(OC(C)=O)C1OC(C)=O` (centres undefined), the TGI in the experiment on SNB-19 CNS, in the experiment on RXF 393 renal, with CAKI-1 renal, in the experiment on SK-MEL-2 melanoma, in the experiment with HOP-62 NSCLC and in the experiment with SF-295 CNS was > 100 µM in each case. In addition, the TGI with U251 CNS, with SF-539 CNS, in the experiment with HCT-15 colon, in the experiment with SK-OV-3 ovarian, in the experiment on NCI/ADR-RES ovarian and with SNB-75 CNS was > 100 µM in each case. The TGI in the experiment with UO-31 renal, with EKVX NSCLC, with SF-268 CNS, with NCI-H226 lung, in the experiment with 786-0 renal and with SK-MEL-28 melanoma was > 100 µM in each case. Further, the TGI in the experiment with MDA-MB-435 is > 100 µM.

For `CCOC(=O)CC1(Cc2ccc(OCc3ccccc3)cc2)C(=O)OC(c2ccccc2)N1C(=O)c1ccccc1` (centres undefined), the TGI with SNB-19 CNS, in the experiment on RXF 393 renal, in the experiment with CAKI-1 renal, with SK-MEL-2 melanoma, with HOP-62 NSCLC and with SF-295 CNS was > 100 µM in each case. In addition, the TGI with U251 CNS, with SF-539 CNS, in the experiment on HCT-15 colon, in the experiment on SK-OV-3 ovarian, with NCI/ADR-RES ovarian and with UO-31 renal was > 100 µM each time. In addition, the TGI with EKVX NSCLC, with SF-268 CNS, in the experiment on NCI-H226 lung, in the experiment on 786-0 renal, in the experiment with SK-MEL-28 melanoma and in the experiment with MDA-MB-435 was > 100 µM in each case.

For `Cc1c2c(nc3ccccc13)C(=O)c1cccnc1C2=O`, the TGI in the experiment with SNB-19 CNS was 92.3 µM; in the experiment on RXF 393 renal, > 100 µM; with HOP-62 NSCLC, > 100 µM; with SF-295 CNS, 97.1 µM; in the experiment with U251 CNS it was > 100 µM; with SF-539 CNS, 54.2 µM. Also, the TGI is > 100 µM with HCT-15 colon; > 100 µM in the experiment on SK-OV-3 ovarian; > 100 µM in the experiment on NCI/ADR-RES ovarian; 91.7 µM in the experiment on SNB-75 CNS; > 100 µM in the experiment on UO-31 renal; 88 µM with EKVX NSCLC. The TGI in the experiment with SF-268 CNS is > 100 µM; in the experiment on NCI-H226 lung, > 100 µM; with 786-0 renal, > 100 µM; in the experiment on SK-MEL-28 melanoma, 94.7 µM; in the experiment with MDA-MB-435, 3.2 µM.

In the case of `Cc1cc(=O)oc2c(CNC(CO)C(=O)O)c(O)ccc12` (centres undefined), the TGI with SNB-19 CNS, in the experiment with RXF 393 renal, with CAKI-1 renal, with SK-MEL-2 melanoma, in the experiment with HOP-62 NSCLC and in the experiment with SF-295 CNS was > 100 µM each time. Also, the TGI in the experiment on U251 CNS, in the experiment on SF-539 CNS, with HCT-15 colon, in the experiment on SK-OV-3 ovarian, with NCI/ADR-RES ovarian and in the experiment on SNB-75 CNS was > 100 µM throughout. Further, the TGI in the experiment on UO-31 renal, in the experiment with EKVX NSCLC, in the experiment on SF-268 CNS, in the experiment on NCI-H226 lung, in the experiment on 786-0 renal and in the experiment with SK-MEL-28 melanoma was > 100 µM throughout. Besides, the TGI with MDA-MB-435 is > 100 µM.

In the case of `O=C(O)C1(Cc2ccccc2)Cc2cc3c(cc2C1)CCC3`, the TGI in the experiment on SNB-19 CNS, in the experiment on RXF 393 renal, with SK-MEL-2 melanoma, in the experiment on HOP-62 NSCLC, with SF-295 CNS and with U251 CNS was > 100 µM throughout. Further, the TGI in the experiment on SF-539 CNS, with HCT-15 colon, with SK-OV-3 ovarian, in the experiment with NCI/ADR-RES ovarian, in the experiment with SNB-75 CNS and in the experiment on UO-31 renal was > 100 µM throughout. Further, the TGI in the experiment with EKVX NSCLC, with SF-268 CNS, with NCI-H226 lung, with 786-0 renal, in the experiment on SK-MEL-28 melanoma and in the experiment on MDA-MB-435 was > 100 µM throughout.

Source of the values: PubChem BioAssay (NCI).
